This note sets out measurements from patent publication US8664257B2, “Oxygen-substituted 3-heteroaroylamino-propionic acid derivatives and their use as pharmaceuticals” (Sanofi, priority 2010, dated 2014).

The term IC50 denotes the point on the concentration scale where inhibition reaches its midpoint.

In the first test the target is T1, Recombinant human cathepsin A (Homo sapiens, UniProt P10619).
T1 construct: Recombinant human cathepsin A (residues 29-480, with a C-terminal 10-His tag); 10-His (C); purchased R&D Systems 1049-SE
T1 sequence (P10619 29-312 limits assumed): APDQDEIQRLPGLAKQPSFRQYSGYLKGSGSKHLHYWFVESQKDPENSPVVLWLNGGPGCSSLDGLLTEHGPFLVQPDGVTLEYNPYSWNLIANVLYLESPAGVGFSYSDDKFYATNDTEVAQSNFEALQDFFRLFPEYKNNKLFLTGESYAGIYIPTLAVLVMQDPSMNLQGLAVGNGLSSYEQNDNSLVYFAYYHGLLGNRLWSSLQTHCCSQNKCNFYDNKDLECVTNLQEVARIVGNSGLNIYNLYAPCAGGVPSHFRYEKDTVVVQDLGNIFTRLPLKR
T1 sequence (P10619 327-480 limits assumed): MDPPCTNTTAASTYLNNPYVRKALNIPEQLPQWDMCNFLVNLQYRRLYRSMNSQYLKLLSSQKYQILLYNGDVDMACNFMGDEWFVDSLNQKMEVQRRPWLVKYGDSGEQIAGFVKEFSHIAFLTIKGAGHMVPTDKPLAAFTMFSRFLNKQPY
In words: Cathepsin A inhibitory activity. Format: biochemical. The following applies: pharmacological test "Cathepsin A inhibitory activity"; IC50 given as class A/B/C; read-out: Activity (2): Cathepsin A inhibitory activity, IC50 class. The method in brief: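 Read-out was microfluidic separation of cleaved vs. uncleaved Bodipy FL-bradykinin (2 μM), giving turnover, % inhibition and IC50. Compound and 833 ng/ml enzyme met for 15 min RT in pH 5.5 MES/DTT before substrate (15 min RT). The 29-480 His-tagged human enzyme was first activated by cathepsin L, then E-64 (10 μM).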
As to `COc1ccc(Cl)cc1C(CC(=O)O)NC(=O)c1cc(O)n(-c2ccc(F)cc2F)n1` (stereo not shown) [Example 178], the IC50 lay in the range of 1 to 30 µM.

As to `O=C(O)C[C@H](NC(=O)c1cc(O)n(-c2ccccc2)n1)c1cccc(F)c1` [Example 166], the IC50 is 1 to 30 µM.

In the case of `COc1cccc([C@H](CC(=O)O)NC(=O)c2cc(O)n(-c3ccccc3)n2)c1` [Example 165], the IC50 lay within 1 to 30 µM.

Take `O=C(O)C[C@H](NC(=O)c1cc(O)n(-c2cccc(Cl)c2)n1)c1ccccc1Br` [Example 251]: the half-maximal inhibitory concentration (IC50) is 0.1 to 1 µM.

As for `COc1cccc([C@H](CC(=O)O)NC(=O)c2cc(O)n(-c3ccccc3Cl)n2)c1` [Example 213], the IC50 fell in the range of 0.1 to 1 µM.

Take `O=C(O)CC(NC(=O)c1cc(O)n(-c2ccccc2F)n1)c1ccc(C(F)(F)F)cc1F` (stereo not shown) [Example 238]: the IC50 fell in the range of 0.1 to 1 µM.

Turning to `O=C(O)CC(NC(=O)c1cc(O)n(-c2ccccc2Cl)n1)c1cccc(C(F)(F)F)c1` (stereo not shown) [Example 206], the IC50 lay within 0.1 to 1 µM.

For `O=C(O)CC(NC(=O)c1cc(O)n(-c2ccc(F)cc2F)n1)c1cccc(C(F)(F)F)c1Cl` (stereo not shown) [Example 193], the IC50 was in the range of 0.1 to 1 µM.

Consider `N#Cc1cccc([C@H](CC(=O)O)NC(=O)c2cc(O)n(-c3cccc(Cl)c3)n2)c1` [Example 252], for which the IC50 lay within 1 to 30 µM.

For `N#Cc1cccc([C@H](CC(=O)O)NC(=O)c2cc(O)n(-c3ccccc3Cl)n2)c1` [Example 205], the IC50 is 0.1 to 1 µM.

For `COc1ccccc1[C@@H](NC(=O)c1cc(O)n(-c2ccccc2Cl)n1)[C@@H](O)C(=O)O` [Example 216], the half-inhibitory concentration (IC50) fell in the range of 1 to 30 µM.

The test is the same for the next values; noted with them: read-out: Activity (2): Cathepsin A inhibitory activity (IC50 class).
In the case of `COc1cc(C(=O)NC(CC(=O)O)c2cccc(F)c2C)nn1-c1ccccc1F` (stereo not shown) [Example 664], the IC50 is under 0.1 µM.

`COc1cc(C(=O)N[C@@H](CC(=O)O)c2cccc(C)c2)nn1-c1ccccc1F` [Example 670]: the IC50 was under 0.1 µM.

For `N#Cc1ccc([C@H](CC(=O)O)NC(=O)c2cc(OCC3CC3)n(-c3ccccc3F)n2)cc1` [Example 688], the IC50 was under 0.1 µM.

With `CCOc1cc(C(=O)N[C@@H](CC(=O)O)c2cccc(Cl)c2Cl)nn1-c1ccccc1F` [Example 722], the half-maximal inhibitory concentration (IC50) is under 0.1 µM.

With `Cc1ccc([C@H](CC(=O)O)NC(=O)c2cc(OC[C@](C)(O)C(C)(C)C)n(-c3ccccc3F)n2)cc1` [Example 780, (S)-3-{[1-(2-Fluoro-phenyl)-5-((R)-2-hydroxy-2,3,3-trimethyl-butoxy)-1H-pyrazole-3-carbonyl]-amino}-3-p-tolyl-propionic acid], the IC50 is under 0.1 µM.

Staying with this test, now noted: read-out: Activity (2): Cathepsin A inhibitory activity, IC50 class.
On to `N#Cc1ccc([C@H](CC(=O)O)NC(=O)c2cc(O)n(-c3cccc(F)c3)n2)cc1` [Example 305], for which the IC50 lay within 0.1 to 1 µM.

With `O=C(O)C[C@H](NC(=O)c1cc(O)n(-c2ccc(F)cc2)n1)c1ccccc1F` [Example 366], the half-maximal inhibitory concentration (IC50) was 0.1 to 1 µM.

For `Cc1ccc(C)c(-n2nc(C(=O)NC(CC(=O)O)c3ccc(Cl)c(Cl)c3)cc2O)c1` (stereo not shown) [Example 48], the half-maximal inhibitory concentration (IC50) was in the range of 1 to 30 µM.

In the case of `O=C(O)C[C@H](NC(=O)c1cc(O)n(-c2ccccc2F)n1)c1ccc(C(F)(F)F)cc1` [Example 121], the IC50 was 0.1 to 1 µM.

As for `O=C(O)C[C@H](NC(=O)c1cc(O)n(-c2ccc(F)cc2F)n1)c1ccccc1F` [Example 387], the IC50 is 0.1 to 1 µM.

For `COc1cccc(-n2nc(C(=O)N[C@@H](CC(=O)O)c3ccccc3C)cc2O)c1` [Example 94], the IC50 lay in the range of 0.1 to 1 µM.

Consider `O=C(O)CC(NC(=O)c1cc(O)n(-c2cccc(F)c2)n1)c1cccc(C(F)(F)F)c1Cl` (stereo not shown) [Example 323], for which the IC50 lay within 0.1 to 1 µM.

As for `CC(C)[C@](C)(O)COc1cc(C(=O)N[C@@H](CC(=O)O)c2c(F)cccc2F)nn1-c1ccccc1F` [Example 817, (S)-3-(2,6-Difluoro-phenyl)-3-{[1-(2-fluoro-phenyl)-5-((S)-2-hydroxy-2,3-dimethyl-butoxy)-1H-pyrazole-3-carbonyl]-amino}-propionic acid], the IC50 was under 0.1 µM.

`CCc1ccc(C(CC(=O)O)NC(=O)c2cc(O)n(-c3cccc(F)c3)n2)cc1` (stereo not shown) [Example 324]: the IC50 is 0.1 to 1 µM.

As to `CC(C)[C@](C)(O)COc1cc(C(=O)NC2(CC(=O)O)CCCC2)nn1-c1ccccc1F` [Example 825, (1-{[1-(2-Fluoro-phenyl)-5-((S)-2-hydroxy-2,3-dimethyl-butoxy)-1H-pyrazole-3-carbonyl]-amino}-cyclopentyl)-acetic acid], the concentration for half-maximal inhibition (IC50) is 0.1 to 1 µM.

`Cc1ccc(C)c(-n2nc(C(=O)NC(CC(=O)O)c3ccc(F)c(F)c3)cc2O)c1` (stereo not shown) [Example 47]: the IC50 is 1 to 30 µM.

Take `CC(C)CC(CC(=O)O)NC(=O)c1cc(OC[C@](C)(O)C(C)C)n(-c2ccccc2F)n1` (stereo partly drawn) [Example 823, 3-{[1-(2-Fluoro-phenyl)-5-((R)-2-hydroxy-2,3-dimethyl-butoxy)-1H-pyrazole-3-carbonyl]-amino}-5-methyl-hexanoic acid]: the IC50 lay within 0.1 to 1 µM.

In the case of `CC(C)[C@@](C)(O)COc1cc(C(=O)NC2(CC(=O)O)CCCC2)nn1-c1ccccc1F` [Example 824, (1-{[1-(2-Fluoro-phenyl)-5-((R)-2-hydroxy-2,3-dimethyl-butoxy)-1H-pyrazole-3-carbonyl]-amino}-cyclopentyl)-acetic acid], the IC50 lay within 0.1 to 1 µM.

On to `CC(C)[C@@](C)(O)COc1cc(C(=O)NC(CC(=O)O)Cc2ccccc2)nn1-c1ccccc1F` (stereo partly drawn) [Example 821, 3-{[1-(2-Fluoro-phenyl)-5-((R)-2-hydroxy-2,3-dimethyl-butoxy)-1H-pyrazole-3-carbonyl]-amino}-4-phenyl-butyric acid], for which the IC50 was under 0.1 µM.

Regarding `O=C(O)C[C@H](NC(=O)c1cc(O)n(-c2ccccc2)n1)c1ccc(Cl)cc1Cl` [Example 95], the IC50 was 0.1 to 1 µM.

In the case of `COc1ccc(C(CC(=O)O)NC(=O)c2cc(O)n(-c3ccccc3)n2)cc1` (stereo not shown) [Example 3, 3-[(5-Hydroxy-1-phenyl-1H-pyrazole-3-carbonyl)-amino]-3-(4-methoxy-phenyl)-propionic acid], the IC50 lay within 0.1 to 1 µM.

`O=C(O)CC(NC(=O)c1cc(O)n(-c2ccccc2)n1)c1cccnc1` (stereo not shown) [Example 16]: the 50% inhibitory concentration (IC50) was in the range of 0.1 to 1 µM.

As to `O=C(O)C[C@H](NC(=O)c1cc(O)n(-c2ccc(F)cc2)n1)c1ccccc1C(F)(F)F` [Example 367], the IC50 was in the range of 0.1 to 1 µM.

With `O=C(O)C[C@H](NC(=O)c1cc(O)n(-c2ccc(Cl)cc2)n1)c1cccc(Cl)c1` [Example 280], the IC50 was in the range of 1 to 30 µM.

Staying with this test, now noted: recombinant human cathepsin A 833 ng/ml, Bodipy FL-labeled bradykinin 2 μM, pH 5.5; read-out: CATH-A IC50.
On to `O=C(O)CC(NC(=O)c1cc(O)n(-c2cccc(Cl)c2)n1)c1cccc(C(F)(F)F)c1F` (stereo not shown) [Example 418, 3-{[1-(3-Chloro-phenyl)-5-hydroxy-1H-pyrazole-3-carbonyl]-amino}-3-(2-fluoro-3-trifluoromethyl-phenyl)-propionic acid], for which the IC50 turned out to be 5.29 µM.

For `O=C(O)CC(NC(=O)c1cc(O)n(-c2ccccc2F)n1)c1cc(F)ccc1Cl` (stereo not shown) [Example 475, 3-(2-Chloro-5-fluoro-phenyl)-3-{[1-(2-fluoro-phenyl)-5-hydroxy-1H-pyrazole-3-carbonyl]-amino}-propionic acid], the IC50 stood at 0.137 µM.

Consider `COc1ccc(F)cc1C(CC(=O)O)NC(=O)c1cc(O)n(-c2ccccc2Cl)n1` (stereo not shown) [Example 504, 3-{[1-(2-Chloro-phenyl)-5-hydroxy-1H-pyrazole-3-carbonyl]-amino}-3-(5-fluoro-2-methoxy-phenyl)-propionic acid], for which the IC50 turned out to be 0.123 µM.

For `O=C(O)CC(NC(=O)c1cc(O)n(-c2ccccc2Cl)n1)c1ccc(-c2ccccn2)cc1` (stereo not shown) [Example 506, 3-{[1-(2-Chloro-phenyl)-5-hydroxy-1H-pyrazole-3-carbonyl]-amino}-3-(4-pyridin-2-yl-phenyl)-propionic acid], the IC50 amounted to 0.0524 µM.

The same test, now with this note: recombinant human cathepsin A; read-out: Activity (2): Cathepsin A inhibitory activity, IC50 class.
For `O=C(O)CC(NC(=O)c1cc(O)n(-c2cccc(Cl)c2)n1)c1cccc(C(F)(F)F)c1F` (stereo not shown) [Example 418, 3-{[1-(3-Chloro-phenyl)-5-hydroxy-1H-pyrazole-3-carbonyl]-amino}-3-(2-fluoro-3-trifluoromethyl-phenyl)-propionic acid], the IC50 was in the range of 1 to 30 µM.

With `Cc1ccc([C@H](CC(=O)O)NC(=O)c2cc(O)n(-c3cccc(F)c3)n2)cc1` [Example 489], the IC50 was in the range of 0.1 to 1 µM.

`O=C(O)C[C@H](NC(=O)c1cc(O)n(-c2cccc(Cl)c2)n1)c1cccc(Cl)c1Cl` [Example 412]: the IC50 lay in the range of 1 to 30 µM.

As for `COc1cc(C(=O)N[C@@H](CC(=O)NCc2ccno2)c2ccccc2C)nn1-c1ccccc1F` [Example 934, 1-(2-Fluoro-phenyl)-5-methoxy-1H-pyrazole-3-carboxylic acid {(S)-2-[(isoxazol-5-ylmethyl)-carbamoyl]-1-o-tolyl-ethyl}-amide], the IC50 is under 0.1 µM.

As for `O=C(O)CC(NC(=O)c1cc(O)n(-c2ccccc2F)n1)c1cc(F)ccc1Cl` (stereo not shown) [Example 475, 3-(2-Chloro-5-fluoro-phenyl)-3-{[1-(2-fluoro-phenyl)-5-hydroxy-1H-pyrazole-3-carbonyl]-amino}-propionic acid], the IC50 fell in the range of 0.1 to 1 µM.

With `O=C(O)CC(NC(=O)c1cc(O)n(-c2ccccc2F)n1)c1ccccc1` (stereo not shown) [Example 535], the half-maximal inhibitory concentration (IC50) lay in the range of 0.1 to 1 µM.

For `COc1ccc(F)cc1C(CC(=O)O)NC(=O)c1cc(O)n(-c2ccccc2Cl)n1` (stereo not shown) [Example 504, 3-{[1-(2-Chloro-phenyl)-5-hydroxy-1H-pyrazole-3-carbonyl]-amino}-3-(5-fluoro-2-methoxy-phenyl)-propionic acid], the IC50 fell in the range of 0.1 to 1 µM.

Regarding `O=C(O)CC(NC(=O)c1cc(O)n(-c2ccccc2Cl)n1)c1ccc(-c2ccccn2)cc1` (stereo not shown) [Example 506, 3-{[1-(2-Chloro-phenyl)-5-hydroxy-1H-pyrazole-3-carbonyl]-amino}-3-(4-pyridin-2-yl-phenyl)-propionic acid], the IC50 was under 0.1 µM.

As for `COc1cc(C(=O)N[C@@H](CC(=O)NCC(C)C)c2ccccc2C)nn1-c1ccccc1F` [Example 919, 1-(2-Fluoro-phenyl)-5-methoxy-1H-pyrazole-3-carboxylic acid ((S)-2-isobutylcarbamoyl-1-o-tolyl-ethyl)-amide], the IC50 was in the range of 1 to 30 µM.

For the compound `COc1ccccc1[C@@H](NC(=O)c1cc(O)n(-c2cccc(Cl)c2)n1)[C@@H](O)C(=O)O` [Example 416], the half-maximal inhibitory concentration (IC50) fell in the range of 1 to 30 µM.
